Measurements from patent publication US8163768B2, “1,4-dihydropyridine-fused heterocycles, process for preparing the same, use and compositions containing them” (Aventis Pharma S.A.., priority 2005, dated 2012).
Structures can show the parent of a compound that is named as a salt.

Tests used:
[1] = target: T1, Aurora2 (Aurora-A) (Homo sapiens, UniProt O14965); experiment: Aurora 2 (Aurora A) kinase radioactivity scintillation assay using nickel chelate Flash plates; assay type: biochemical; conditions: 10 nM Aurora-A, 500 nM NuMA substrate, 1 μM ATP with [33P] ATP, 10 mM MgCl2, 30 minutes, 37° C.
T1 construct: Aurora-A: the full length recombinant protein including an N-terminal poly-histidine tail has been expressed in E. coli; poly-histidine (N); made in house; host or cells: E. coli
T1 sequence (O14965 1-403): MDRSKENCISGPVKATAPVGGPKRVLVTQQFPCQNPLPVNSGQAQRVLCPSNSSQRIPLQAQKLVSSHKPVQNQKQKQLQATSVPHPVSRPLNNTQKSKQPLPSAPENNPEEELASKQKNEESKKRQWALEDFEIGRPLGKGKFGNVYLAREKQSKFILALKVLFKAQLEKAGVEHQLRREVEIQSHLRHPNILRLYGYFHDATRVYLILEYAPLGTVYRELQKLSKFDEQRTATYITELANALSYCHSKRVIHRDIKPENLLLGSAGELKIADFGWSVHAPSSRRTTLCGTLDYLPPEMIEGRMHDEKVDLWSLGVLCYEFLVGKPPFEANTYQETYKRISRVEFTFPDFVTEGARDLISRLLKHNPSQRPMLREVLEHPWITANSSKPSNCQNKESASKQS
How it was run: (§1)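 10 nM Aurora-B or Aurora-A with 500 nM NuMA-His substrate, 1 μM ATP plus [³³P]ATP, in 50 mM NaCl, 1 mM DTT and 5 mM (B) or 10 mM (A) MgCl2, 30 min at 37° C on nickel-chelate plates. Incorporated ³³P counted after washing, background-subtracted; IC50 fitted from % inhibition versus concentration.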

[2] = target: T2, Aurora1 (Aurora-B) (Homo sapiens, UniProt Q96GD4); experiment: Aurora 1 (Aurora B) kinase radioactivity scintillation assay using nickel chelate Flash plates; assay type: biochemical; conditions: 10 nM Aurora-B (co expressed with C3 fragment of INCEP), 500 nM NuMA substrate, 1 μM ATP with [33P] ATP, 5 mM MgCl2, 30 minutes, 37° C.
T2 construct: Aurora-B: the full length protein (His tagged in N-terminal) has been co expressed in SF9 cells; poly-histidine (N); made in house; host or cells: SF9 cells
How it was run: as §1

T2 sequence (Q96GD4 whole entry, species assumed, the tested form may be a part): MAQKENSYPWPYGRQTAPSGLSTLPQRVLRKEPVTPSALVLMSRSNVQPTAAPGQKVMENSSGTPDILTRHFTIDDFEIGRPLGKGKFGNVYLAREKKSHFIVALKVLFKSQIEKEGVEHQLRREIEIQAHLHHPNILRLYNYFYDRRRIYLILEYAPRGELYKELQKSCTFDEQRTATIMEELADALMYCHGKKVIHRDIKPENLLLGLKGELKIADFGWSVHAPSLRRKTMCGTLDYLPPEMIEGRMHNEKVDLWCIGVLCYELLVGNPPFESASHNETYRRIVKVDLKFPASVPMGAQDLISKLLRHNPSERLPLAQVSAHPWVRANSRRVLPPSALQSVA
T2 sequence (Q9NQS7 821-918 partner limits assumed, species assumed): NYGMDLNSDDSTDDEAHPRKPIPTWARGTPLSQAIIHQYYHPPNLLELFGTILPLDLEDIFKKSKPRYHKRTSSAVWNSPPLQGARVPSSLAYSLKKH

| IC50 [1] | IC50 [2] | SMILES |
| --- | --- | --- |
| 0.525 µM | 0.047 µM | CCOC(=O)c1[nH]cc2c1NC1=C(C(=O)CN(C(=O)OC(C)(C)C)C1)C2c1ccc(Sc2nc3cc(Cl)c(C)cc3[nH]2)o1 (stereo not shown) [Example 134] |
| 0.087 µM | 0.02 µM | CCOC(=O)c1[nH]cc2c1NC1=C(C(=O)CNC1)C2c1ccc(Sc2nc3cc4c(cc3[nH]2)OC(F)(F)O4)o1 (stereo not shown) [Example 141, 9-[5-(2,2-Difluoro-5H-[1,3]dioxolo[4′,5′:4,5]benzo[1,2-d]imidazol-6-ylsulfanyl)-furan-2-yl]-8-oxo-4,5,6,7,8,9-hexahydro-2H-pyrrolo[3,4-b]-1,7-naphthyridine-3-carboxylic acid ethyl ester hydrochloride] |
| 0.028 µM | 0.006 µM | O=C1CCCC2=C1C(c1ccc(Sc3nc4cc(F)cc(F)c4[nH]3)o1)c1c[nH]nc1N2 (stereo not shown) [Example 144, 4-[5-(5,7-Difluoro-1H-benzimidazol-2-ylsulfanyl)-furan-2-yl]-2,4,6,7,8,9-hexahydro-pyrazolo[3,4-b]quinolin-5-one] |
| 0.06 µM | 0.014 µM | CCOC(=O)c1[nH]cc2c1NC1=C(C(=O)CNC1)C2c1ccc(Sc2nc3cc(OC(F)(F)F)ccc3[nH]2)o1 (stereo not shown) [Example 151, 8-Oxo-9-[5-(5-trifluoromethoxy-1H-benzimidazol-2-ylsulfanyl)-furan-2-yl]-4,5,6,7,8,9-hexahydro-2H-pyrrolo[3,4-b][1,7]naphthyridine-3-carboxylic acid ethyl ester hydrochloride] |
| 0.02 µM | 0.015 µM | CC1(C)CC(=O)C2=C(C1)Nc1c(c[nH]c1C(=O)O)C2c1ccc(Sc2nc3ccccc3[nH]2)o1 (stereo not shown) [Example 124, 9-[5-(1H-Benzimidazol-2-ylsulfanyl)-furan-2-yl]-6,6-dimethyl-8-oxo-4,5,6,7,8,9-hexahydro-2H-pyrrolo[3,4-b]quinoline-3-carboxylic acid] |
| 3.09 µM | 0.194 µM | CCOC(=O)c1[nH]cc2c1NC1=C(C(=O)CCC1)C2c1ccc(Sc2nc3ccncc3[nH]2)o1 (stereo not shown) [Example 117, 9-[5-(3H-Imidazo[4,5-c]pyridin-2-ylsulfanyl)-furan-2-yl]-8-oxo-4,5,6,7,8,9-hexahydro-2H-pyrrolo[3,4-b]quinoline-3-carboxylic acid ethyl ester] |
| 0.205 µM | 0.093 µM | CCOC(=O)c1[nH]cc2c1NC1=C(C(=O)CN(C(=O)OC(C)(C)C)C1)C2c1ccc(Sc2nc3cc(Cl)cc(C)c3[nH]2)o1 (stereo not shown) [Example 137, 6-tert-Butyloxy-9-[5-(5-chloro-7-methyl-1H-benzimidazol-2-ylsulfanyl)-furan-2-yl]-8-oxo-2,4,5,7,8,9-hexahydro-pyrrolo[3,4-b]-1,7-naphthyridine-3-carboxylic acid ethyl ester] |
| 0.434 µM | 0.037 µM | CCOC(=O)c1[nH]cc2c1NC1=C(C(=O)CN(C(=O)OC(C)(C)C)C1)C2c1ccc(Sc2nc3cc(Cl)ccc3[nH]2)o1 (stereo not shown) [Example 130] |
| 0.031 µM | 0.005 µM | CCOC(=O)c1[nH]cc2c1NC1=C(C(=O)CCC1)C2c1ccc(Sc2nc3cc(Cl)c(C)cc3[nH]2)o1 (stereo not shown) [Example 133, 9-[5-(5-Chloro-6-methyl-1H-benzimidazol-2-ylsulfanyl)-furan-2-yl]-8-oxo-4,5,6,7,8,9-hexahydro-2H-pyrrolo[3,4-b]quinoline-3-carboxylic acid ethyl ester] |
| 0.055 µM | 0.011 µM | CCOC(=O)c1[nH]cc2c1NC1=C(C(=O)CNC1)C2c1ccc(Sc2nc3cc(F)ccc3[nH]2)o1 (stereo not shown) [Example 149, 9-[5-(5-Fluoro-1H-benzimidazol-2-ylsulfanyl)-furan-2-yl]-8-oxo-4,5,6,7,8,9-hexahydro-2H-pyrrolo[3,4-b]-1,7-naphthyridine-3-carboxylic acid ethyl ester hydrochloride] |

The next lines start with the compound.

| SMILES | IC50 [1] | IC50 [2] |
| --- | --- | --- |
| CCOC(=O)c1[nH]cc2c1NC1=C(C(=O)CNC1)C2c1ccc(Sc2nc3cccnc3[nH]2)o1 (stereo not shown) [Example 113, 9-[5-(3H-Imidazo[4,5-b]pyridin-2-ylsulfanyl)-furan-2-yl]-8-oxo-4,5,6,7,8,9-hexahydro-2H-pyrrolo[3,4-b][1,7]naphthyridine-3-carboxylic acid ethyl ester] | 0.112 µM | 0.023 µM |
| COc1ccc2[nH]c(Sc3ccc(C4C5=C(CC(C)(C)CC5=O)Nc5n[nH]cc54)o3)nc2c1 (stereo not shown) [Example 81, 4-[5-(5-Methoxy-1H-benzimidazol-2-ylsulfanyl)-furan-2-yl]-7,7-dimethyl-2,4,6,7,8,9-hexahydro-pyrazolo[3,4-b]quinolin-5-one] | 0.033 µM | 0.011 µM |
| O=C1CC(c2ccc(Cl)cc2Cl)CC2=C1C(c1ccc(Sc3nc4ccccc4[nH]3)o1)c1c[nH]nc1N2 (stereo not shown) [Example 33, 4-[5-(1H-Benzimidazol-2-ylsulfanyl)-furan-2-yl]-7-(2,4-dichloro-phenyl)-2,4,6,7,8,9-hexahydro-pyrazolo[3,4-b]quinolin-5-one; compound with trifluoro-acetic acid] | 0.179 µM | 0.032 µM |
| Cn1c(Sc2ccc(C3C4=C(CC(C)(C)CC4=O)Nc4n[nH]cc43)o2)nc2ccccc21 (stereo not shown) [Example 84, 7,7-Dimethyl-4-[5-(1-methyl-1H-benzimidazol-2-ylsulfanyl)-furan-2-yl]-2,4,6,7,8,9-hexahydro-pyrazolo[3,4-b]quinoline-5-one] | 0.947 µM | 0.177 µM |
| CCOC(=O)c1[nH]cc2c1NC1=C(C(=O)CCC1)C2c1ccc(Sc2nc3cc(C)ccc3[nH]2)o1 (stereo not shown) [Example 108, 9-[5-(5-Methyl-1H-benzimidazol-2-ylsulfanyl)-furan-2-yl]-8-oxo-4,5,6,7,8,9-hexahydro-2H-pyrrolo[3,4-b]quinoline-3-carboxylic acid ethyl ester] | 0.041 µM | 0.008 µM |
| O=C1CNCC2=C1C(c1ccc(Sc3nc4cc(Cl)ccc4s3)o1)c1c[nH]nc1N2 (stereo not shown) [Example 74, 4-[5-(5-Chloro-benzothiazol-2-ylsulfanyl)-furan-2-yl]-2,4,6,7,8,9-hexahydro-pyrazolo[3,4-b]-1,7-naphthyridin-5-one; compound with trifluoro-acetic acid] | 0.302 µM | 0.521 µM |
| CN1C2=C(C(=O)CCC2)C(c2ccc(Sc3nc4ccccc4[nH]3)o2)c2c[nH]nc21 (stereo not shown) [Example 59, 4-[5-(1H-Benzimidazol-2-ylsulfanyl)-furan-2-yl]-9-methyl-2,4,6,7,8,9-hexahydro-pyrazolo[3,4-b]quinolin-5-one; compound with trifluoro-acetic acid] | 2.22 µM | 0.136 µM |
| COc1ccc(C2CC(=O)C3=C(C2)Nc2n[nH]cc2C3c2ccc(Sc3nc4ccccc4[nH]3)o2)cc1 (stereo not shown) [Example 32, 4-[5-(1H-Benzimidazol-2-ylsulfanyl)-furan-2-yl]-7-(4-methoxy-phenyl)-2,4,6,7,8,9-hexahydro-pyrazolo[3,4-b]quinolin-5-one; compound with trifluoro-acetic acid] | 0.125 µM | 0.05 µM |
| Cn1c(-c2ccc(Cl)cc2)cnc1Sc1ccc(C2C3=C(CCCC3=O)Nc3n[nH]cc32)o1 (stereo not shown) [Example 92, 4-{5-[5-(4-Chloro-phenyl)-1-methyl-1H-imidazol-2-ylsulfanyl]-furan-2-yl}-2,4,6,7,8,9-hexahydro-pyrazolo[3,4-b]quinolin-5-one] | 2.09 µM | 0.233 µM |
| Cc1c[nH]c(Sc2ccc(C3C4=C(CC(C)(C)CC4=O)Nc4n[nH]cc43)o2)n1 (stereo not shown) [Example 91, 7,7-Dimethyl-4-[5-(4-methyl-1H-imidazol-2-ylsulfanyl)-furan-2-yl]-2,4,6,7,8,9-hexahydro-pyrazolo[3,4-b]quinolin-5-one; compound with trifluoro-acetic acid] | 0.156 µM | 0.086 µM |
| Cc1nc(Sc2ccc(C3C4=C(CNCC4=O)Nc4n[nH]cc43)o2)[nH]c1C (stereo not shown) [Example 100, 4-[5-(4,5-Dimethyl-1H-imidazol-2-ylsulfanyl)-furan-2-yl]-2,4,6,7,8,9-hexahydro-pyrazolo[3,4-b]-1,7-naphthyridin-5-one; compound with trifluoro-acetic acid] | 5.44 µM | 5.43 µM |
| CC1CC(=O)C2=C(C1)Nc1n[nH]cc1C2c1ccc(Sc2nc3ccccc3[nH]2)o1 (stereo not shown) [Example 28, 4-[5-(1H-Benzimidazol-2-ylsulfanyl)-furan-2-yl]-7-methyl-2,4,6,7,8,9-hexahydro-pyrazolo[3,4-b]quinolin-5-one; compound with trifluoro-acetic acid] | 0.017 µM | 0.005 µM |
| CC1(C)CC(=O)C2=C(C1)Nc1n[nH]cc1C2c1ccc(Sc2nc3cc(Cl)ccc3s2)o1 (stereo not shown) [Example 75, 4-[5-(5-Chloro-benzothiazol-2-ylsulfanyl)-furan-2-yl]-7,7-dimethyl-2,4,6,7,8,9-hexahydro-pyrazolo[3,4-b]quinolin-5-one] | 0.073 µM | 0.183 µM |
